Results: publication PMC6663863, “The inositol hexakisphosphate kinases IP6K1 and -2 regulate human cellular phosphate homeostasis, including XPR1-mediated phosphate export” (The Journal of Biological Chemistry, 2019)

Molecular target: T1, SPX^XPR1 (recombinant His-tagged SPX domain of human XPR1) (Homo sapiens, UniProt Q9UBH6)
T1 construct: SPX domain only, N-terminal cytosolic part; residue borders not given, cloning primers encode start MKFAEHL and end PPLGAAQ-stop; His tag (modified pHisTrcA), HisTrap purified
T1 sequence (Q9UBH6 1-227): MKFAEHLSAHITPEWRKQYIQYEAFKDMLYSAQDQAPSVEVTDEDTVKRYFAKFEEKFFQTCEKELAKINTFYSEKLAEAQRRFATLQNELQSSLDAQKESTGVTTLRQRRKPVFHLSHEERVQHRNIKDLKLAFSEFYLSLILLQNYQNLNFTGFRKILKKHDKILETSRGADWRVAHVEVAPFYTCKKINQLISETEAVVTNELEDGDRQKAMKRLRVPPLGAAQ
Test: competition with [3H]IP6, PEG precipitation
Type: binding

Row | Compound | IC50
1 | O=P(O)(O)O[C@@H]1[C@@H](OP(=O)(O)O)[C@@H](OP(=O)(O)O)[C@@H](OP(=O)(O)OP(=O)(O)O)[C@H](OP(=O)(O)O)[C@H]1OP(=O)(O)O [1-IP7] | ~8.4 µM
2 | O=P(O)(O)O[C@H]1[C@@H](OP(=O)(O)O)[C@H](OP(=O)(O)O)[C@@H](OP(=O)(O)OP(=O)(O)O)[C@H](OP(=O)(O)O)[C@H]1OP(=O)(O)O [5-IP7, 5-diphosphoinositol pentakisphosphate] | ~4.2 µM
3 | O=P(O)(O)O[C@@H]1[C@@H](OP(=O)(O)O)[C@H](OP(=O)(O)O)[C@H](O)[C@H](OP(=O)(O)O)[C@H]1OP(=O)(O)O [I(1,3,4,5,6)P5] | 28.1 ± 3.9 µM
4 | O=P(O)(O)O[C@H]1[C@H](OP(=O)(O)O)[C@@H](OP(=O)(O)O)[C@H](OP(=O)(O)O)[C@@H](OP(=O)(O)O)[C@H]1OP(=O)(O)O [IP6, inositol hexakisphosphate] | ~9.8 µM
